Like-named read-outs stand apart in the source and are kept apart here.
What was measured:
H. pylori SS1 = experiment: Viability of H. pylori SS1 after overnight incubation with MGO or honey (drop plate CFU); type: cell-based, Helicobacter pylori; settings: for Helicobacter pylori viable count: catalase treated
Procedure: The H. pylori SS1 strain was obtained and initially cultured on Campylobacter Selective Agar (CSA) plates and incubated at 37° C. under microaerobic conditions (10% Co2) for 48 h. Following culture, the isolates were checked for purity (microscopy, catalase and oxidase), after which SS1 was cultured in Brucella broth supplemented with 5% Fetal Bovine Serum and 1% Vitox under microaerobic conditions with shaking for 24 h. The effect of 1) methylglyoxal (MGO), density 1.17 g/ml, 2) Honey M1: Manuka honey O50336-10 (MGO content=0.593 mg/g), 3) Honey M2=Honey M1 adjusted to a pH of 9.0, 4) Honey M3=Comvita Wound Care Honey 18+ (MGO content=0.6 mg/g) and 5) Honey C: Control honey (100% Australian Honey, Leabrook Farms, Australia) on H. pylori was determined. MGO at concentrations of 1, 5, 10, 20, 50 and 100 mg/L were prepared by dissolving an appropriate amount of MGO in Brucella broth. To ensure an equivalent concentration of MGO in the Manuka honeys, the appropriate weight of honey (Honey M1 and Honey M2=6.75 g), (Honey M3=6.67 g) was measured out, after which an equal volume of Brucella broth at 37° C. was added to the honey and this was vortexed to aid mixing. Following vortexing, an equal volume of catalase solution (2 mg/ml) prepared from bovine liver was added to negate the effect of hydrogen peroxide, and this was again vortexed to aid mixing. The total volume was then adjusted to 40 ml using Brucella broth. […] The control Honey C was prepared in a similar fashion starting with an initial weight=6.71 g). To avoid contamination with lactic acid bacteria that are commonly present in honey (e.g. Leuconostoc citreum and Lactococcus garvieae), preparations of honey M1 and Honey C were filter sterilized through 0.22 µm pore size membrane filters prior to use in the in vitro assay. The Comvita wound care 18+ honey was not filter sterilised as this product undergoes sterilisation on manufacture. […] H. pylori were grown in broth culture overnight as described above. Following incubation, cells were washed once and resuspended in Brucella broth to an Optical Density (OD) 600 1.5. Ten pl of the microbial suspension was then inoculated into wells of a 96-well microtiter plate containing 200 pl of broth, supplemented with a range of concentrations of MGO (0, 1, 5, 10, 20, 50 and 100 mg/L), or an equivalent concentration of MGO contained in the Manuka honeys, or the same percentage of control honey. Each of the concentrations of MGO, MGO in the Manuka honeys and the control honey were tested in triplicate. Following addition of H. pylori to the microtiter plates, these were incubated under microaerobic conditions (10% CO2) overnight. Following incubation the number of viable colonies in the wells was assessed using the drop plate method. Following incubation the number of visible colonies on CSA agar plates were counted and the colony forming units (CFU)/ml calculated.

Helicobacter pylori = Helicobacter pylori infected mice fed honey; type: in vivo; settings: honey 2.8 g/kg body weight, MGO given in sugar solution
From the text: An experiment was completed feeding manuka honey with a UMF 22 to Helicobacter pylori infected mice at a rate of 2.8 g/kg body weight honey.

IL-1β = experiment: Cytokine production by peripheral blood mononuclear cells, IL-1β; type: cell-based; settings: human PBMC supernatants; FIG. 9
Procedure: (§1) An experiment was completed using three honey samples, the first being a high UMF manuka honey containing 1002 mg of MGO/kg, a moderate UMF manuka honey containing 649 mg of MGO/kg, a clover honey containing minimal MGO/kg and pure MGO alone. Results were compared against a negative control with cells alone […] and PHA as the inflammatory agent. Human blood was collected from six donors and peripheral blood mononuclear cells were separated by Ficoll gradients. Donor bloods were processed in pairs. The experiments tested the effect of the honey on the blood cells and the levels of cytokines produced. Supernatents from cells incubated with varying honey and MGO concentrations were collected and assayed for a number of pro and anti-inflammatory cytokines. Cytokines are molecules secreted by cells that are involved in communication between cells. Cytokines bind to specific receptors on cell surfaces and the signals then created can alter cellular functions. The cytokines tested in this study were IL-1β, IL-10 and […]. Cytokines were measured using a biorad, bioplex suspension array system.

TNFα = experiment: Cytokine production by peripheral blood mononuclear cells, TNFα; type: cell-based; settings: human PBMC supernatants; FIG. 11
Procedure: as §1

IL-10 = experiment: Cytokine production by peripheral blood mononuclear cells, IL-10; type: cell-based; settings: human PBMC supernatants; FIG. 10
Procedure: as §1

neutrophils = experiment: Neutrophil superoxide production with honeys of increasing MGO; type: cell-based; settings: increasing MGO concentrations in honey
From the text: The inventors conducted an experiment to determine whether increasing MGO concentrations also increase the ability of honey with the MGO to prevent or slow neutrophils from making superoxides (a part of the inflammatory response).

E. coli O157/Nissle = type: cell-based; settings: no honey

For `CC(=O)C=O` [MGO (pH 9), methylglyoxal], the “Helicobacter pylori viable count” value (H. pylori SS1; MGO conc 50 mg/L, honey conc 8.4%, listed as MGO at pH 9) was 6.9×10^6 CFU/ml and the “Helicobacter pylori viable count” value (H. pylori SS1; MGO conc 100 mg/L, honey conc 16.7%, listed as MGO at pH 9) was 1.7×10^6 CFU/ml.
In the case of `CC(=O)C=O` [MGO, methylglyoxal], the “H. pylori bacteria numbers in infected mice” value (Helicobacter pylori) is reported as “does not reduce bacteria numbers alone”, the IL-1β production (IL-1β) is reported as “no effect” and the “MGO concentration at which CFU of H. pylori SS1 were reduced” value (H. pylori SS1; MGO alone or equivalent MGO in honey) is reported as ≥ 20 mg/L. For the same molecule, the “Helicobacter pylori viable count” value (H. pylori SS1; MGO conc 20 mg/L, honey conc 4.2%) was 7.1×10^6 CFU/ml, the “Helicobacter pylori viable count” value (H. pylori SS1; MGO conc 50 mg/L, honey conc 8.4%) was 7.0×10^5 CFU/ml and the “Helicobacter pylori viable count” value (H. pylori SS1; MGO conc 100 mg/L, honey conc 16.7%) was 1.1×10^4 CFU/ml. The TNFα production (TNFα) was “no effect”, the IL-10 values (IL-10) was “not affected” and the “Ability to prevent or slow neutrophils from making superoxides” value (neutrophils) was “made no difference at all”.
With `OO` [Peroxide, hydrogen peroxide] the “Mean inhibition zone (n = 3)” value (E. coli O157/Nissle; peroxide 36.7 mM + catalase 1000 U/mL) was 0.0 mm and the “Mean inhibition zone (n = 3)” value (E. coli O157/Nissle; peroxide 36.7 mM alone) was 3.3 mm.
In the case of Catalase, the “Mean inhibition zone (n = 3)” value (E. coli O157/Nissle; catalase 1000 U/mL alone) is reported as 0.0 mm.

Reference: patent publication US20120021061A1, “MEDICAL AND NUTRITIONAL FORMULATIONS” (Comvita New Zealand Limited, priority 2008, published 2012)
